For one data set, the system named is B16 Melanoma. In words: Antitumor activity in the B16 melanoma system (NCI screen). The settings on record: for % T/C (median lifetime) / cures (live animals day 60) / Survivors Day 4 / WT Diff, g (T - C): B16, Q01D × 09. Here is the method: (§1) Another approach to make basic derivatives is based on the concept of taking an existing hydrolysable derivative and further modifying it to form a derivative that allows for stepwise hydrolysis.
Antitumor Activity in the B16 Melanoma System^a
(§2) ^a Screening was carried out under the auspices of the National Cance
(§3) Institute. For detailed explanations of procedures and data, see
(§4) Instruction 14, Screening Data Summary Interpretation and Outline of
(§5) Current Screen, Drug Evaluation Branch, Developmental Therapeutics
(§6) Program, Division of Cancer Treatment, National Cancer Institute,
(§7) Bethesda, Maryland 20892.
(§8) ^b Q01D × 09. Single dose for 9 days; given in milligrams per
(§9) kilogram body weight per injection.
(§10) ^c Abbreviations: survivors day 4, live animals on the fourth day of
(§11) testing/total animal; wt diff, g (T - C), the difference in body weight i
(§12) grams between test and control animals; % T/C, the median lifetime of tes
(§13) animals divided by the median lifetime of control animals, times 100; for
(§14) the solid tumor system % T/C is 100 × (change in treated tumor wt 1
(§15) day 11 - day 0)/change in control tumor wt.) if the tumor grows or 100
(§16) × (change in treated tumor wt./initial treated tumor wt.) if the
(§17) tumor regresses; cures, number of live animals on the last day of
(§18) evaluation for the B16 melanoma system (day 60) or number of animals
(§19) without measurable tumor on day 11 for the MX1 mammary tumor system.

The next data set in a line: Aqueous solubility. The settings on record: water.
In data set [1] the test system is Human MX-1 Mammary Tumor Xenograft. In words: Human MX-1 mammary tumor xenograft (3MBG5) assay. The note with it: MX-1 xenograft; for % T/C (tumor weight change): day 11. Here is the method: as §1, §2, §3, §4, §5, §6, §7, §8, §9, §10, §11, §12, §13, §14, §15, §16, §17, §18, §19
The subject of another data set is tubulin. The note with it: mechanism of action, Horwitz; cited from earlier work.
For data set [2] the following is noted: numerous studies; cited from earlier work.
For data set [3] the following is noted: a number of test systems; cited from earlier work.
The conditions of data set [4]: water; background statement; cited from earlier work.

Here are results for three compounds from patent US5157049A, “Method of treating cancers sensitive to treatment with water soluble derivatives of taxol” (The United States of America as represented by the …, priority 1991, dated 1992).

Values joined by “and” are separate entries in the source; they are usually repeats but may differ in a detail not shown here. Equal values may be shown once. “Also recorded” adds a separate entry of the source. Where a name gives a salt, the structure may show the parent alone.

Consider `CC(=O)O[C@H]1C(=O)[C@@]2(C)[C@H]([C@H](OC(=O)c3ccccc3)[C@]3(O)C[C@H](OC(=O)[C@H](OC(=O)CCC(=O)O)[C@@H](NC(=O)c4ccccc4)c4ccccc4)C(C)=C1C3(C)C)[C@]1(OC(C)=O)CO[C@@H]1C[C@@H]2O` [Example 12], for which the “% T/C (median lifetime)” value in the data set on B16 Melanoma (1.25 mg/kg per injection) was 111%; with B16 Melanoma (2.5 mg/kg per injection) it was 159% and 125%; in the data set with B16 Melanoma (5 mg/kg per injection), 166% and 131%; in the data set with B16 Melanoma (10 mg/kg per injection), 183% and 160%; in the data set on B16 Melanoma (20 mg/kg per injection), 201% and 160%; with B16 Melanoma (40 mg/kg per injection), 218% and 177%. Further, the “cures (live animals day 60)” value came to 1 in the data set on B16 Melanoma (2.5 mg/kg per injection), 1 with B16 Melanoma (10 mg/kg per injection) and 2 in the data set on B16 Melanoma (40 mg/kg per injection). Besides, the “antitumor activity (in words)” value in the data set on B16 Melanoma (summary statements on in vivo screening, Table VI, listed as 1, sodium salt) is reported as “improved antitumor activity as compared to the free acid”. Moreover, the aqueous solubility entry in the data set “Aqueous solubility” (listed as 1, sodium salt) is given as “about 0.1%”.
A word on the solubility: it is the dissolved amount per volume that the medium holds. On to `CC(=O)O[C@H]1C(=O)[C@@]2(C)[C@H]([C@H](OC(=O)c3ccccc3)[C@]3(O)C[C@H](OC(=O)[C@H](OC(=O)CCCC(=O)NCCCN(C)C)[C@@H](NC(=O)c4ccccc4)c4ccccc4)C(C)=C1C3(C)C)[C@]1(OC(C)=O)CO[C@@H]1C[C@@H]2O` [Example 25, HCl-Salt], for which the “% T/C (median lifetime)” value in the data set on B16 Melanoma (1.2 mg/kg per injection) came out at 123%; in the data set with B16 Melanoma (2.5 mg/kg per injection), 129%; in the data set with B16 Melanoma (5 mg/kg per injection), 188%; with B16 Melanoma (10 mg/kg per injection) it was 352%; with B16 Melanoma (20 mg/kg per injection) it was 352%. For the same compound, the “Survivors Day 4” value in the data set on B16 Melanoma (1.2 mg/kg per injection) was 10/10; with B16 Melanoma (2.5 mg/kg per injection), 10/10; in the data set on B16 Melanoma (5 mg/kg per injection) it was 10/10; in the data set on B16 Melanoma (10 mg/kg per injection) it was 10/10; with B16 Melanoma (20 mg/kg per injection) it was 10/10; in data set [1] (2.5 mg/kg per injection), 6/6. The “Survivors Day 4” value in data set [1] (5 mg/kg per injection) is reported as 6/6; in data set [1] (10 mg/kg per injection) it was 6/6; in data set [1] (20 mg/kg per injection), 5/6; in data set [1] (40 mg/kg per injection), 5/6. In addition, the “WT Diff, g (T - C)” value is -0.1 g with B16 Melanoma (1.2 mg/kg per injection); -0.1 g in the data set on B16 Melanoma (2.5 mg/kg per injection); 0.1 g in the data set on B16 Melanoma (5 mg/kg per injection); -0.1 g in the data set with B16 Melanoma (10 mg/kg per injection); 0 g with B16 Melanoma (20 mg/kg per injection); -0.6 g in data set [1] (2.5 mg/kg per injection). For the same compound, the “WT Diff, g (T - C)” value in data set [1] (5 mg/kg per injection) is given as 0.1 g; in data set [1] (10 mg/kg per injection) it was -2.2 g; in data set [1] (20 mg/kg per injection) it was 0.3 g; in data set [1] (40 mg/kg per injection), -5.9 g. In addition, the “cures (live animals day 60)” value with B16 Melanoma (10 mg/kg per injection) was found to be 5; in the data set on B16 Melanoma (20 mg/kg per injection) it was 6. Also, the “% T/C (tumor weight change)” value in data set [1] (2.5 mg/kg per injection) was 22%; in data set [1] (5 mg/kg per injection), 1%; in data set [1] (10 mg/kg per injection), 1%; in data set [1] (20 mg/kg per injection, negative = regression) it was -100%; in data set [1] (40 mg/kg per injection, negative = regression), -100%. Also, the “cures (animals without measurable tumor on day 11)” value in data set [1] (20 mg/kg per injection) and in data set [1] (40 mg/kg per injection) was 5 in each case. Further, the “aqueous solubility (in words)” value in the data set “Aqueous solubility” is listed as “good solubility”. In the data set “Aqueous solubility”, the solubility was around 10000 µg/mL.
`CC(=O)O[C@H]1C(=O)[C@@]2(C)[C@H]([C@H](OC(=O)c3ccccc3)[C@]3(O)C[C@H](OC(=O)[C@H](O)[C@@H](NC(=O)c4ccccc4)c4ccccc4)C(C)=C1C3(C)C)[C@]1(OC(C)=O)CO[C@@H]1C[C@@H]2O` [Taxol, taxol]: the “% T/C (median lifetime)” value in the data set on B16 Melanoma (5 mg/kg per injection) is 175%; in the data set with B16 Melanoma (10 mg/kg per injection), 139%; with B16 Melanoma (20 mg/kg per injection), 96%; with B16 Melanoma (40 mg/kg per injection) it was “TOXIC”. Besides, the “Survivors Day 4” value in the data set with B16 Melanoma (5 mg/kg per injection), in the data set on B16 Melanoma (10 mg/kg per injection), in the data set on B16 Melanoma (20 mg/kg per injection) and in the data set with B16 Melanoma (40 mg/kg per injection) was 10/10 throughout. Further, the “WT Diff, g (T - C)” value in the data set with B16 Melanoma (5 mg/kg per injection) is given as -0.2 g; in the data set with B16 Melanoma (10 mg/kg per injection) it was 0 g; with B16 Melanoma (20 mg/kg per injection), -0 g; in the data set with B16 Melanoma (40 mg/kg per injection) it was -1.2 g. In addition, the “promotion of tubulin assembly (in words)” value in the data set with tubulin is “promoting tubulin assembly into stable aggregated structures which resist depolymerization by dilution, calcium ion, cold, and a number of microtubule-disrupting drugs”. Also, the “cytotoxicity (in words)” value in data set [2] is on record as “highly cytotoxic”. For the same compound, the “in vivo activity (in words)” value in data set [3] is reported as “strong in vivo activity”. Moreover, the “aqueous solubility of taxol (in words)” value in data set [4] is recorded as “essentially insoluble in water; also recorded: extremely low aqueous solubility”.
